# Experiments:
# Hep3B [1] = assay: Cell viability assay (WST-1), Hep3B; type: cell-based; conditions: 24 h
# Sk-Hep1 = assay: Cell viability assay (WST-1), Sk-Hep1; type: cell-based
# [2] = Cell viability assay (WST-1), THLE-3; type: cell-based; conditions: human, thle-3 cells, THLE-3, 30 μM, read-out: survival rate of the cells
# THLE-3 = assay: Cell viability assay (WST-1), THLE-3; type: cell-based; conditions: THLE-3, 5-30 μM, 24 h
# Hep3B [3] = assay: DAPI assay, nuclear condensation / apoptosis induction; type: cell-based; conditions: 20, 25 μM
# Hep3B [4] = assay: Cell cycle analysis by flow cytometer (propidium iodide); type: cell-based; conditions: for sub-G1 cell population: 24 h (untreated 1.35%)
# Hep3B [5] = assay: Western blot of cell cycle-related proteins; type: cell-based; conditions: 15, 20, 25 μM, 24 h
# Hep3B [6] = assay: Immunofluorescence, p21Waf1/Cip1; type: cell-based; conditions: 15 μM, 12 h; vs untreated
# Hep3B [7] = assay: Western blot of Bcl-2 family and apoptotic proteins; type: cell-based; conditions: 15, 20, 25 μM, 24 h
# Hep3B [8] = assay: Immunofluorescence, cleaved caspase-8 and -3; type: cell-based; conditions: 15 μM, 12 h; vs untreated
# Hep3B [9] = assay: Western blot of endoplasmic reticulum chaperone proteins; type: cell-based; conditions: 20 μM, depending on time
# Hep3B [10] = assay: Immunofluorescence, caspase-12 (endoplasmic reticulum stress); type: cell-based; conditions: 15 μM, 12 h
# [11] = test system: Hep3B cells transformed with GFP-LC3B plasmid; assay: Autophagosome formation in GFP-LC3B transformed cells, fluorescence microscopy; type: cell-based; conditions: 20 μM, over time (6, 12, 18, 24)
# Hep3B [12] = assay: Western blot of LC3B; type: cell-based; conditions: 15, 20, 25 μM, 12 h; vs untreated
# HUVECs = assay: Tube formation assay (angiogenesis, in vitro); type: cell-based, human; conditions: for degree of tube formation (total tube length, converted to percent): 18 h (untreated 222)
# Hep3B [13] = assay: Wound-healing assay (cell migration); type: cell-based
smiles,measurement,setting,value
"COc1ccc(C[C@@H]2c3cc(Oc4cc(C[C@@H]5c6cc(OC)c(OC)cc6CCN5C)ccc4O)c(OC)cc3CCN2C)cc1 [neferine, 4-[[(1R)-6,7-Dimethoxy-2-methyl-3,4-dihydro-1H-isoquinolin-1-yl]methyl]-2-[[(1R)-6-methoxy-1-[(4-methoxyphenyl)methyl]-2-methyl-3,4-dihydro-1H-isoquinolin-7-yl]oxy]phenol]",cell suppression,Hep3B [1]; 10 μM or more,marked cell suppression
same,cell viability (concentration dependence),Hep3B [1]; 5-30 μM,significant decrease in cell viability depending on the neferrin treatment concentration
same,viability at 30 µM,"Hep3B [1]; Homo sapiens, read-out: cell viability",< 10%
same,viability at 30 µM,"Sk-Hep1; Homo sapiens, SK-HEP1, 24 h, read-out: survival rate of the cells",~90%
same,cytotoxicity,"Sk-Hep1; Sk-Hep1, 5-30 μM, 24 h",did not show cytotoxicity
same,"viability at 24 h, 30 µM",[2],~90%
same,cytotoxicity,THLE-3,did not show cytotoxicity
same,"nuclear membrane changes (shrinkage, blebbing)","Hep3B [3]; 6 h after treatment, vs untreated",세포들의 응축(shrinkage) 및 파열(blebbing)과 같은 핵 막 변화가 나타나는
same,nuclear condensation (apoptosome formation),Hep3B [3]; 24 h after treatment,핵 응축(apoptosome formation)이 관찰되었다
same,sub-G1 cell population,Hep3B [4]; 15 μM,4.78%
same,increase of G1/S phase compared to untreated group,"Hep3B [4]; 20 μM, 24 h",approximately 9%
same,sub-G1 cell population,Hep3B [4]; 20 μM,16.01%
same,sub-G1 cell population (concentration dependence),"Hep3B [4]; 15, 20, 25 μM, 24 h",sub-G1 cell population increases in proportion to the neferrin treatment concentration
same,CDK4 protein expression,Hep3B [5],down regulation
same,E2F-1 protein expression,Hep3B [5],down regulation
same,c-Myc protein expression,Hep3B [5],down regulation
same,cyclin D1 protein expression,Hep3B [5],down regulation
same,cyclin D3 protein expression,Hep3B [5],down regulation
same,p21 Waf1/Cip1 protein expression,Hep3B [5],expression was increased
same,phosphorylation of cdc2,Hep3B [5],dephosphorylation of cdc2
same,expression level of p21 Waf1/Cip1 protein around the nucleus in the cytoplasm,Hep3B [6],두드러지게 증대
same,Bak protein expression,Hep3B [7],significantly increased
same,Bax protein expression,Hep3B [7],slightly increased
same,Bid protein expression,Hep3B [7],slightly increased
same,Bim protein expression,Hep3B [7],slightly increased
same,Puma protein expression,Hep3B [7],significantly increased
same,caspase-3 protein expression,Hep3B [7],decrease depending on the treatment concentration
same,cleaved PARP protein expression,Hep3B [7],markedly increased
same,cleaved caspase-6 protein expression,Hep3B [7],markedly increased
same,cleaved caspase-3 expression,Hep3B [8],markedly expressed
same,cleaved caspase-8 expression,Hep3B [8],markedly expressed
same,Bip protein expression level,Hep3B [9],significantly up-regulate
same,PDI protein expression level,Hep3B [9],significantly up-regulate
same,calnexin protein expression level,Hep3B [9],significantly up-regulate
same,calpain2 protein expression level,Hep3B [9],significantly up-regulate
same,caspase-12 protein expression level,Hep3B [9],significantly up-regulate
same,expansion of the endoplasmic reticulum (caspase-12 staining),Hep3B [10],소포체의 확장을 관찰
same,number of autophagosomes in the cytoplasm (GFP-LC3B dots),[11],자가포식소체 수가 세포질 내에서 증가
same,size and number of vacuoles,[11],시간 의존적으로 더 크고 많이 증가
same,vacuole formation in the cytoplasm,[11],소체(vacuole) 형성이 발생
same,expression of LC3B around the membrane,Hep3B [12],농도 의존적으로 증가
same,"degree of tube formation (total tube length, converted to percent)",HUVECs; 10 μM,216%
same,"degree of tube formation (total tube length, converted to percent)",HUVECs; 20 μM,202%
same,"degree of tube formation (total tube length, converted to percent)",HUVECs; 30 μM,146%
same,formation of cellular vascular structures,"HUVECs; 10, 20, 30 μM, 18 h",suppression of the formation of cellular vascular structures
same,"tube length (px), concentration dependence","HUVECs; 10, 20, 30 μM, 18 h",tube length (px) is reduced depending on the neferrin concentration
same,inhibition at 15 µM,"Hep3B [13]; Homo sapiens, Hep3B, 15 μM, 72 h, vs increased migration in untreated group, read-out: reduction of cell coverage area",~20%
same,cell migration,Hep3B [13]; images at 12 h intervals,cell migration was suppressed depending on the neferrin treatment concentration

# — patent WO2014051359A1, “Pharmaceutical composition comprising neferine as active ingredient for preventing or treating hepatoma” (Pukyong National University, priority 2012, dated 2014)
